Broadly, the IC50 is the midpoint of a concentration-inhibition curve.

These results are taken from US20180037568A1, “MODULATORS OF METHYL MODIFYING ENZYMES, COMPOSITIONS AND USES THEREOF” (Constellation Pharmaceuticals, Inc., priority 2015, published 2018).

Each structure is given as a SMILES string.

T1 sequence (Q15910 whole entry): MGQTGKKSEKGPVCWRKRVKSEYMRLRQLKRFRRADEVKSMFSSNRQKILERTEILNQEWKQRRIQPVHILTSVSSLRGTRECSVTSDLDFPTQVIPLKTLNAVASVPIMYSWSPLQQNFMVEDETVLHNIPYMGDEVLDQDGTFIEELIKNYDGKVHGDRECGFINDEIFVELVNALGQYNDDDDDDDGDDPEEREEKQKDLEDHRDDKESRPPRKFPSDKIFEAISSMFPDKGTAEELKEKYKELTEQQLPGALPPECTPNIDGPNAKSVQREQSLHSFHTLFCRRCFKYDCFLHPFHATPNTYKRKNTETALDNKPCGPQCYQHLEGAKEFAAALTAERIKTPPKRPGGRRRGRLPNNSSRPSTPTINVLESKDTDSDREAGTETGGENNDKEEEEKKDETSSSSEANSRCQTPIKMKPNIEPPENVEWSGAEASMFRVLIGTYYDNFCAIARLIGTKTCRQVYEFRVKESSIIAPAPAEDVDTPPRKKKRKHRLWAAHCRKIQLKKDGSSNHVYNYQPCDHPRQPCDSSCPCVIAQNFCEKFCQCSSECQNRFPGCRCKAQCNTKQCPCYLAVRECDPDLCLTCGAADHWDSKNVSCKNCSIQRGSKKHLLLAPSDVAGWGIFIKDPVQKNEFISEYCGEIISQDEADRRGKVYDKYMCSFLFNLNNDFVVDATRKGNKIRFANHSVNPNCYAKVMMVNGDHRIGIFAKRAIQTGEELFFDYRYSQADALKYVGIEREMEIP
T1 sequence (O75530 whole entry partner): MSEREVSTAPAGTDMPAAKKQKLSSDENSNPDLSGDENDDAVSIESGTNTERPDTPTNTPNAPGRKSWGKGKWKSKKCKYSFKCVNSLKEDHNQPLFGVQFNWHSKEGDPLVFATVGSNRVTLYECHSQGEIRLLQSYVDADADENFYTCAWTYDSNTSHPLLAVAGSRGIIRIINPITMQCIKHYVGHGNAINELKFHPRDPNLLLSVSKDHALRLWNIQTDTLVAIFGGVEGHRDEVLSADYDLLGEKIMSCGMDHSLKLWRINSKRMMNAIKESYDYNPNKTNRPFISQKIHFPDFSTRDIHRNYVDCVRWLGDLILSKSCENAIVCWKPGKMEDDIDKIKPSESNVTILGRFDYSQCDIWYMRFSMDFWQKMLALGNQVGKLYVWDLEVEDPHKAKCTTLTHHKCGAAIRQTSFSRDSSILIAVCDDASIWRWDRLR
T1 sequence (Q15022 whole entry partner): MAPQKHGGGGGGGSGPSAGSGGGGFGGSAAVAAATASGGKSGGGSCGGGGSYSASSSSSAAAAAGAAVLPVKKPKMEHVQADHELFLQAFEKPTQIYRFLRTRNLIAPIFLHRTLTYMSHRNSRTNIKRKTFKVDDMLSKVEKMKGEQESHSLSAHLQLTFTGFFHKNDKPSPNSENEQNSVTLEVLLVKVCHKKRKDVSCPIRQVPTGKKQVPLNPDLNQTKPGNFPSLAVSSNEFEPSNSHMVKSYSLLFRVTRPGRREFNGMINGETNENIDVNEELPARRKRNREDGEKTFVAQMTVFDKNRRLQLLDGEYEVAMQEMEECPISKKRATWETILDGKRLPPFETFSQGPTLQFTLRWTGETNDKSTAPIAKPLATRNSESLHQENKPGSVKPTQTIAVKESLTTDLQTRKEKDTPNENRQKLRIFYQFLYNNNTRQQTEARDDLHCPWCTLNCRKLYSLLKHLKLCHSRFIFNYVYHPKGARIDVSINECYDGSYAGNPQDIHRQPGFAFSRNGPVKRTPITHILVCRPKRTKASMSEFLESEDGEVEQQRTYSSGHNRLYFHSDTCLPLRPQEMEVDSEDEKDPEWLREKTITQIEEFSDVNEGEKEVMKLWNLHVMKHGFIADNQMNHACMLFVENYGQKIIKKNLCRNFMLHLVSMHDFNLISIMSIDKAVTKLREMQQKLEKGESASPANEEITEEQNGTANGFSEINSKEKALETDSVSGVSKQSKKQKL
T1 sequence (Q09028 whole entry partner): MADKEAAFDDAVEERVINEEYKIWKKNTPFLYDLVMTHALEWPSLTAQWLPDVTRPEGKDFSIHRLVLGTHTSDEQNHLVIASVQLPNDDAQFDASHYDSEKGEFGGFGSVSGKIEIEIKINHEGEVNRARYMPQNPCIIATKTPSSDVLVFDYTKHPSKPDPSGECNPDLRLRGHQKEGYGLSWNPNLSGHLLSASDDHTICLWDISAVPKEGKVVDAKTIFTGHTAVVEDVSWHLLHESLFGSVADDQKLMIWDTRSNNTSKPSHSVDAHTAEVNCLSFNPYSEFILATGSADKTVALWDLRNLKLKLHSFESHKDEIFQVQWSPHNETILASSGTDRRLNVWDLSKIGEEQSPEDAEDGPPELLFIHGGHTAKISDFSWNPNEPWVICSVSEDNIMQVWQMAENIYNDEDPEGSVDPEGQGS
T1 sequence (Q6ZN18 whole entry partner): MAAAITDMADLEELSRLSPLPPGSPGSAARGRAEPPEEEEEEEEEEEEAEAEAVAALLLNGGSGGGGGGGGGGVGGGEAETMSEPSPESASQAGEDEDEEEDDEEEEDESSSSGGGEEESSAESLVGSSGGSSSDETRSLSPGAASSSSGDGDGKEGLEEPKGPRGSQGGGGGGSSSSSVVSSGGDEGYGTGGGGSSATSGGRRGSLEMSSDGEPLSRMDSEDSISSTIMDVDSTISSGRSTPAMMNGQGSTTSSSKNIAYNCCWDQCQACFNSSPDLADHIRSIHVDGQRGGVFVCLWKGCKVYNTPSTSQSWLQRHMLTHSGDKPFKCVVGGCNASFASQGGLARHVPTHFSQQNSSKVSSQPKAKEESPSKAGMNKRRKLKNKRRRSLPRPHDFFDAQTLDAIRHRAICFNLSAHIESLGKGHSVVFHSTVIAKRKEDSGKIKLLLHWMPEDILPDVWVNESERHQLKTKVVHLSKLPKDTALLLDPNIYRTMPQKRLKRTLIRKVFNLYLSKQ

One assay concerns the target T1, PRC2 containing wt EZH2 (Homo sapiens, UniProt Q15910).
T1 construct: made in house
Description: EZH2 pep BSA Brij 4.0 LowE (IC50): 3H-SAM incorporation into biotinylated H3 peptide. The following applies: 20 pM PRC2 wt EZH2, 0.9 μM 3H-SAM, biotinylated H3 peptide substrate, 2 μM H3K27me3 activating peptide; read-out: EZH2 pep BSA Brij 4.0 LowE (IC50). Format: biochemical. Here is the method:
EZH2 Pep BSA Brij 4.0 LowE (IC50):
Compound potencies were assessed through incorporation of ^3H-SAM into a biotinylated H3 peptide. Specifically, PRC2 containing wt EZH2 (20 pM), (pentameric complexes prepared in-house) was pre-incubated with ^3H-SAM (0.9 μM), 2 μM H3K27me3 activating peptide (H2N-RKQLATKAAR(Kme3)SAPATGGVKKP-amide) and compounds (as 10 point duplicate dose response titrations in DMSO, final assay 0.8% DMSO (v/v)) for 120 min in 50 mM Tris (pH 8.5), 1 mM DTT, 0.07 mM Brij-35, 0.1% BSA, and 0.8% DMSO in a total volume of 12.5 μl. Reaction was initiated with biotinylated H3 substrate peptide (H2N-RKQLATKAAR(Kme1)SAPATGGVKKP-NTPEGBiot) as a 2 μM stock in 12.5 μl of buffer and allowed to react at room temperature for 5 h. Quenching was accomplished by addition of 20 μl of STOP solution (50 mM Tris (pH 8.5), 200 mM EDTA, 2 mM SAH). 35 μl of the quenched solution was transferred to Streptavidin Flashplates, incubated overnight, washed, and read in a TopCount Reader (Perkin Elmer). IC50s were calculated relative to fully active and no enzyme control wells using non-linear least square four parameter fits.
With `Cc1cc(C)c(CNC(=O)c2c(C)n(C(C)C3CCNC(c4cccc(F)c4)C3)c3ccccc23)c(=O)[nH]1` (stereo not drawn) [Compound 53], the IC50 was under 100 nM. As for `COc1cc(C)[nH]c(=O)c1CNC(=O)c1c(C)n(C(C)C2CCNC(c3cccc(C(F)(F)F)c3)C2)c2ccccc12` (stereo not drawn) [Compound 77], the half-inhibitory concentration (IC50) was under 100 nM. As to `COc1cc(C)[nH]c(=O)c1CNC(=O)c1c(C)n(C(C)C2CCN(C(C)=O)C(CC(F)(F)F)C2)c2ccccc12` (stereo not drawn) [Compound 80], the IC50 is under 100 nM. On to `Cc1cc(C)c(CNC(=O)c2c(C)n(C(C)C3CCN(C)C(c4cccc(F)c4)C3)c3ccccc23)c(=O)[nH]1` (stereo not drawn) [Compound 61], for which the IC50 is under 100 nM. Take `Cc1cc(C)c(CNC(=O)c2c(C)n(C(C)C3CCN(C)C(c4cccc(F)c4)C3)c3ccccc23)c(=O)[nH]1` (stereo not drawn) [Compound 56]: the IC50 is under 100 nM.

As for `COc1cc(C)[nH]c(=O)c1CNC(=O)c1c(C)n(C(C)C2CCN(C(C)=O)C(CC(F)(F)F)C2)c2ccccc12` (stereo not drawn) [Compound 81], the IC50 is under 100 nM. On the same count and under the same terms, then `COc1cc(C)[nH]c(=O)c1CNC(=O)c1c(C)n(C(C)C2CCN(C)C(c3cccc(F)c3)C2)c2ccccc12` (stereo not drawn) [Compound 57], with under 100 nM; and `COc1cc(C)[nH]c(=O)c1CNC(=O)c1c(C)n(C(C)C2CCNC(c3cccc(C(F)(F)F)c3)C2)c2ccccc12` (stereo not drawn) [Compound 76], with under 100 nM; and `COc1cc(C)[nH]c(=O)c1CNC(=O)c1c(C)n(C(C)C2CCNC(c3cccc(F)c3)C2)c2ccccc12` (stereo not drawn) [Compound 51], with under 100 nM. As for `COc1cc(C)[nH]c(=O)c1CNC(=O)c1c(C)n(C(C)C2CCNC(c3cccc(F)c3)C2)c2ccccc12` (stereo not drawn) [Compound 65], the IC50 was under 100 nM. `Cc1cc(C)c(CNC(=O)c2c(C)n(C(C)C3CCNC(c4cccc(F)c4)C3)c3ccccc23)c(=O)[nH]1` (stereo not drawn) [Compound 52]: the half-inhibitory concentration (IC50) is under 100 nM.

The same assay, now with this note: EZH2 pep BSA Brij 4.0 LowE (IC50), 20 pM PRC2 wt EZH2, 0.9 μM 3H-SAM, biotinylated H3 peptide substrate, 2 μM H3K27me3 activating peptide.
Turning to `COc1cc(C)[nH]c(=O)c1CNC(=O)c1c(C)n(C(C)C2CCNC(CC(F)(F)F)C2)c2ccccc12` (stereo not drawn) [Compound 87], the IC50 lay in the range of 100 to 1000 nM. Still for that read-out and setting: in the case of `Cc1cc(C)c(CNC(=O)c2c(C)n(C(C)C3CCN(CC(C)(F)F)C(C)C3)c3ccccc23)c(=O)[nH]1` (stereo not drawn) [Compound 58] it was under 100 nM; in that of `Cc1cc(C)c(CNC(=O)c2c(C)n(C(C)C3CCNC(CC(F)(F)F)C3)c3ccccc23)c(=O)[nH]1` (stereo not drawn) [Compound 83], under 100 nM. Same read-out and setting: then `CCC1CC(C(C)n2c(C)c(C(=O)NCc3c(C)cc(C)[nH]c3=O)c3ccccc32)CCN1CC(F)F` (stereo not drawn) [Compound 67], with under 100 nM; and `CCS(=O)(=O)N1CCC(C(C)n2c(C)c(C(=O)NCc3c(OC)cc(C)[nH]c3=O)c3ccccc32)CC1C` (stereo not drawn) [Compound 94], with 100 to 1000 nM.

In the case of `CCC1CC(C(C)n2c(C)c(C(=O)NCc3c(OC)cc(C)[nH]c3=O)c3ccccc32)CCN1CC(F)F` (stereo not drawn) [Compound 54], the IC50 is under 100 nM.

For the molecule `COc1cc(C)[nH]c(=O)c1CNC(=O)c1c(C)n(C(C)C2CCNC(c3ccccc3F)C2)c2ccccc12` (stereo not drawn) [Compound 50], the 50% inhibitory concentration (IC50) is under 100 nM.

`CCS(=O)(=O)N1CCC(C(C)n2c(C)c(C(=O)NCc3c(OC)cc(C)[nH]c3=O)c3ccccc32)CC1C` (stereo not drawn) [Compound 93] gave a concentration for half-maximal inhibition (IC50) of 100 to 1000 nM. The same measure, in the same setting: then `COc1cc(C)[nH]c(=O)c1CNC(=O)c1c(C)n(C(C)C2CCN(CC(C)(F)F)C(C)C2)c2ccccc12` (stereo not drawn) [Compound 64], with under 100 nM; and `Cc1cc(C)c(CNC(=O)c2c(C)n(C(C)C3CCN(CC(C)(F)F)C(C)C3)c3ccccc23)c(=O)[nH]1` (stereo not drawn) [Compound 74], with under 100 nM.

Still in this assay, the particulars now being: read-out: EZH2 pep BSA Brij 4.0 LowE (IC50); 20 pM PRC2 wt EZH2, 0.9 μM 3H-SAM, biotinylated H3 peptide substrate, 2 μM H3K27me3 activating peptide.
In the case of `CCC1CC(C(C)n2c(C)c(C(=O)NCc3c(OC)cc(C)[nH]c3=O)c3ccccc32)CCN1CC(F)F` (stereo not drawn) [Compound 63], the IC50 is under 100 nM. Same read-out and setting: in the case of `CCC1CC(C(C)n2c(C)c(C(=O)NCc3c(OC)cc(C)[nH]c3=O)c3ccccc32)CCN1CC(F)F` (stereo not drawn) [Compound 62] it was under 100 nM; in that of `CCC1CC(C(C)n2c(C)c(C(=O)NCc3c(OC)cc(C)[nH]c3=O)c3ccccc32)CCN1CC(F)F` (stereo not drawn) [Compound 60], under 100 nM.
